# Literature values, collected in PMC8583936, “Machine Learning Assisted Approach for Finding Novel High Activity Agonists of Human Ectopic Olfactory Receptors” (International Journal of Molecular Sciences, 2021).
# Where two headings read alike, the source gives them in different places.
# Columns and labels:
# OR1A1 = molecular target: T1, OR1A1 (Homo sapiens, UniProt Q9P1Q5); settings: cited from earlier work
# T1 sequence (Q9P1Q5 1-309): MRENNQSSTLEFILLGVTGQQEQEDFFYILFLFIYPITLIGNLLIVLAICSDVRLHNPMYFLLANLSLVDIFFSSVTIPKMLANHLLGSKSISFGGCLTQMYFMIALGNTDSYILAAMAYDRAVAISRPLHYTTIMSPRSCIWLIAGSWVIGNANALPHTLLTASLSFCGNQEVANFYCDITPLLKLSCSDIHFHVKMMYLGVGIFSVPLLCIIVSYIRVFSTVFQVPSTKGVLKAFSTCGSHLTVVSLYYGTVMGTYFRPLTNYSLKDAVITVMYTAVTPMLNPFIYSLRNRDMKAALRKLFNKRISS
# OR2W1 = molecular target: T2, OR2W1 (Homo sapiens, UniProt Q9Y3N9); settings: cited from earlier work
# T2 sequence (Q9Y3N9 1-320): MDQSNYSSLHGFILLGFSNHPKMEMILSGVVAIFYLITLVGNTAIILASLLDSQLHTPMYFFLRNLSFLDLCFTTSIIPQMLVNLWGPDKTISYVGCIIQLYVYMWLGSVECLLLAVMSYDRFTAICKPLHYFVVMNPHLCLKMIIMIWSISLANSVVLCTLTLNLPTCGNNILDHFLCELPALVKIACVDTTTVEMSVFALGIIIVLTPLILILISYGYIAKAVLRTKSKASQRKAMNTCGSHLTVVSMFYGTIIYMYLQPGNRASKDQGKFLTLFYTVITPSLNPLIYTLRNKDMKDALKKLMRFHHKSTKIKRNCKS
# [1] = Table S1, ref Supplement references [1]-[9] as printed after each odorant name
# [2] = Table S2, ref Supplement references [2]-[12] as printed after each odorant name
Compound,Class (agonist / non-agonist / conflicting info.) for OR1A1 (OR1A1; [1]),Class (agonist / non-agonist / antagonist / conflicting info.) for OR2W1 (OR2W1; [2]),Class (agonist / non-agonist / conflicting info.) for OR1A1 (OR1A1),Class (agonist / non-agonist / antagonist / conflicting info.) for OR2W1 (OR2W1)
CCOC(=O)C(C)CC (stereo not drawn) [Ethyl 2-methylbutyrate],Non-agonist,Non-agonist,–,–
CCC(=O)C(C)S (stereo not drawn) [2-Sulfanylpentan-3-one],Non-agonist,Non-agonist,–,–
Caramel furanone,Non-agonist,Non-agonist,–,–
(S)-(-)-limonene,agonists,Agonist,–,–
C=CCOC(=O)CCCCCC [Allyl heptanoate],–,–,Agonist,Non-agonist
CCCSSSC [Methyl propyl trisulfide],Non-agonist,Non-agonist,–,–
CCC1(O)C2(C)CCC(C2)C1(C)C (stereo not drawn) [2-ethylfenchol],Conflicting info.,–,–,Conflicting info.
CSC [Dimethyl sulfide],Non-agonist,Non-agonist,–,–
CCCCO [1-butanol],Non-agonist,Non-agonist,–,–
COCCC(C)(C)S [4-Methoxy-2-methyl-2-butanethiol],Non-agonist,Non-agonist,–,–
COc1ccc2ccc(=O)oc2c1 [7-methoxycoumarin],Non-agonist,Non-agonist,–,–
CC(=O)OC/C=C/c1ccccc1 [Cinnamyl acetate],Non-agonist,Agonist,–,–
CCCCOC(=O)C(C)OC(=O)CCC (stereo not drawn) [Butyl butyryl lactate],Non-agonist,Non-agonist,–,–
CCC(C)CO (stereo not drawn) [2-methyl-1-butanol],–,–,Non-agonist,Non-agonist
CCCCCC[C@H](C)O [(S)-(+)-2-octanol],Non-agonist,Non-agonist,–,–
CC1=CCC(C(C)(C)O)CC1 (stereo not drawn) [Terpineol],Conflicting info.,Conflicting info.,–,–
CCc1cccc(O)c1 [3-ethylphenol],Non-agonist,Non-agonist,–,–
Cc1ccc(O)cc1 [4-methylphenol],Non-agonist,Non-agonist,–,–
"CCC(C(=O)O)c1ccccc1 (single isomer, unassigned; (-)) [(-)-2-Phenylbutyric acid]",Non-agonist,Non-agonist,–,–
CCCCCCCC=O [Octanal],Conflicting info.,Agonist,–,–
CC(=O)CC(C)(C)S [4-Mercapto-4-methyl-2-pentanone],Non-agonist,Non-agonist,–,–
COc1ccc(C=O)cc1 [Anisaldehyde],Non-agonist,Non-agonist,–,–
C=CC(C)(O)CCC=C(C)C (stereo not drawn) [Linalool],Conflicting info.,Non-agonist,–,–
CSCCCO [Methionol],Non-agonist,Non-agonist,–,–
CCCCOC(C)=O [Butyl acetate],Non-agonist,Non-agonist,–,–
CSCSC [Bis(methylthio)methane],–,–,Non-agonist,Non-agonist
CCCCCCC=O [Heptanal],Conflicting info.,Agonist,–,–
